One may read the IC50 as the concentration that gives 50% inhibition. A low value points to greater potency in that assay.

SMILES strings stand for the structures.

For 13 compounds, IC50 results are on record in US11485731B2, “Compounds and methods useful in the treatment of a PRMT5-mediated disorder” (ARGONAUT THERAPEUTICS LIMITED, priority 2017, dated 2022).

In this test the target is human PRMT5/MEP50 (Homo sapiens (Human), UniProt O14744). Put plainly: PRMT5 chemiluminescent assay. The note with it: human PRMT5/MEP50 expressed in HEK293 cells; biotinylated histone peptides; Histone H4 monomethyl R3 antibody; chemiluminescent readout. In kind it is biochemical. On the procedure: A PRMT5 chemiluminescent assay was used to measure the IC50 activity of PRMT5 of the compounds of Examples 1A to 7 above. Biotinylated histone peptides were synthesized and attached to 384-well plates. Compound serial dilutions were performed and added to the assay plate. Histone H4 monomethyl R3 antibody was obtained from Abcam. A master mix for each well was prepared and human PRMT5/MEP50 (expressed in HEK293 cells) diluted in assay buffer to a concentration of 5 ng/μL. The reaction was incubated and slowly rotated for 60 minutes at the point of PRMT5/MEP50 addition. The supernatant from the wells was removed and blocking buffer was added to each well and rotated for 10 minutes. The primary antibody was diluted and added to every well for 60 minutes, before it was removed and the wells washed. The horse raddish peroxidase (HRP)-coupled secondary antibody was diluted and added to each well with an incubation time of 30 minutes. The HRP chemiluminescent substrate was added to every well. The plate was read on a Flourstar Omega BMG Labtech instrument (Ortenberg, Germany) and the analysis of IC50 was performed using the Flourstar Omega BMG Labtech software.
Sequence of human PRMT5/MEP50 (O14744 whole entry): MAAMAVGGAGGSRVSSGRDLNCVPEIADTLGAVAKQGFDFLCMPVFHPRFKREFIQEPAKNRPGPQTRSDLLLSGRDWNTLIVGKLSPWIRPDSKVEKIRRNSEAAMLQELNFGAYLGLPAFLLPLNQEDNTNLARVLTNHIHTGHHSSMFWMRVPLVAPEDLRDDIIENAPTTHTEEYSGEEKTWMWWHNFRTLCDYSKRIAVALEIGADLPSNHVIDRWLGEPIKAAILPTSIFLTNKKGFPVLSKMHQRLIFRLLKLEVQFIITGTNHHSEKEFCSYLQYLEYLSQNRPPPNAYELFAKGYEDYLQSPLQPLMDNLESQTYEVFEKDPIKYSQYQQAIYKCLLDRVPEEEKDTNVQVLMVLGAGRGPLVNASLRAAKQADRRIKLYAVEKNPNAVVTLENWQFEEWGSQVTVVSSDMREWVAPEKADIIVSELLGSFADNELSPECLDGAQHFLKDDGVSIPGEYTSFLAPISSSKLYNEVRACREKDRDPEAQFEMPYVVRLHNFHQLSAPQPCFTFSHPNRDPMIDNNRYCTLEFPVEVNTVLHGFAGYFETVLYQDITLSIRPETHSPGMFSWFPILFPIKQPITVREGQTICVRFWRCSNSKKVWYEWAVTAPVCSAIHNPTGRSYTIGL
Sequence of human PRMT5/MEP50 (Q9BQA1 whole entry partner): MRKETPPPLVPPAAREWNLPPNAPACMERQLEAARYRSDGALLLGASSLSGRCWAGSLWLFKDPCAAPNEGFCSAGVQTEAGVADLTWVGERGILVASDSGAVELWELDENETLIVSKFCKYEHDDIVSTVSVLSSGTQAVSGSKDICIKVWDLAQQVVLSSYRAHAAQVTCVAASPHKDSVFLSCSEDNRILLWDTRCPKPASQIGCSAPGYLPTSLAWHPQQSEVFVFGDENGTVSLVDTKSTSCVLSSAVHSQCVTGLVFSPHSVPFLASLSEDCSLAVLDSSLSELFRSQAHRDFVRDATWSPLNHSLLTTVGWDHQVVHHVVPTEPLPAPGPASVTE
In turn, `O=C(NC[C@H](O)CN1CCc2ccccc2C1)N1CCCC(C2CCOCC2)C1` (stereo partly drawn) [Example 1BZ, N-((S)-3-(3,4-dihydroisoquinolin-2(1H)-yl)-2-hydroxypropyl)-3-(tetrahydro-2H-pyran-4-yl)piperidine-1-carboxamide] returned an IC50 of 270 nM. This lies in the sub-micromolar range.

Compound `O=C(NCC(O)CN1CCc2ccsc2C1)N1CCCc2ccccc21` (stereo not shown) [Example 1Z, N-(3-(4,7-dihydrothieno[2,3-c]pyridin-6(5H)-yl)-2-hydroxypropyl)-3,4-dihydroquinoline-1(2H)-carboxamide] showed an IC50 of 639 nM. This IC50 lies about 2.4-fold higher than the previous one. For `O=C(NC[C@H](O)CN1CCc2ccccc2C1)N1CCCN(C(=O)c2ccccc2)CC1` [Example 1AR, (S)-4-benzoyl-N-(3-(3,4-dihydroisoquinolin-2(1H)-yl)-2-hydroxypropyl)-1,4-diazepane-1-carboxamide] the value was 658 nM; for `O=C(OCC(O)CN1CCc2ccccc2C1)N1CCC(Cc2ccccc2)CC1` (stereo not shown) [Example 4D, 3-(3,4-dihydroisoquinolin-2(1H)-yl)-2-hydroxypropyl 4-benzylpiperidine-1-carboxylate], 173 nM. For `O=C(NCC(O)CN1CCc2ccccc2C1)N1CCCC(O)C1` (stereo not shown) [Example 1CK, N-(3-(3,4-dihydroisoquinolin-2(1H)-yl)-2-hydroxypropyl)-3-hydroxypiperidine-1-carboxamide], it took 329 nM to reach half-maximal inhibition (IC50). For `O=C(NC[C@H](O)CN1CCc2ccccc2C1)N1CCC[C@H](c2ccccn2)C1` (single isomer, unassigned) [Example 5E, (S)-N-((S)-3-(3,4-dihydroisoquinolin-2(1H)-yl)-2-hydroxypropyl)-3-(pyridin-2-yl)piperidine-1-carboxamide or (R)-N-((S)-3-(3,4-dihydroisoquinolin-2(1H)-yl)-2-hydroxypropyl)-3-(pyridin-2-yl)piperidine-1-carboxamide], the IC50 was determined as 81 nM. For the compound `CN(C)C(=O)C1CN(C(=O)OCC(O)CN2CCc3ccccc3C2)C1` (stereo not shown) [Example 4S, 3-(3,4-dihydroisoquinolin-2(1H)-yl)-2-hydroxypropyl 3-(dimethylcarbamoyl)azetidine-1-carboxylate], the IC50 was found to be 5030 nM. For `O=C(NC[C@H](O)CN1CCc2ccccc2C1)N1CCC[C@@H](c2ccccc2)C1` (single isomer, unassigned) [Example 5B, (S)-N-((S)-3-(3,4-dihydroisoquinolin-2(1H)-yl)-2-hydroxypropyl)-3-phenylpiperidine-1-carboxamide or (R)-N-((S)-3-(3,4-dihydroisoquinolin-2(1H)-yl)-2-hydroxypropyl)-3-phenylpiperidine-1-carboxamide] the value was 599 nM; for `O=C(OCC(O)CN1CCc2sccc2C1)N1CCc2ccccc2C1` (stereo not shown) [Example 4AA, 3-(6,7-dihydrothieno[3,2-c]pyridin-5(4H)-yl)-2-hydroxypropyl 3,4-dihydroisoquinoline-2(1H)-carboxylate], 46 nM.

The compound `O=C(NCC(O)CN1CCc2ccccc2C1)N1CCCC(Oc2ccccc2)C1` (stereo not shown) [Example 1H, N-[2-hydroxy-3-(1,2,3,4-tetrahydroisoquinolin-2-yl)propyl]-3-phenoxypiperidine-1-carboxamide] yielded an IC50 of 267 nM. `O=C(NCC(O)CN1CCc2ccccc2C1)N1CCCN(Cc2ccccc2)CC1` (stereo not shown) [Example 1T, 4-benzyl-N-(3-(3,4-dihydroisoquinolin-2(1H)-yl)-2-hydroxypropyl)-1,4-diazepane-1-carboxamide] came in with an IC50 of 40 nM. The result for `O=C(OCC(O)CN1CCc2sccc2C1)N1CCCC(c2ccccc2)C1` (stereo not shown) [Example 4AC, 3-(6,7-dihydrothieno[3,2-c]pyridin-5(4H)-yl)-2-hydroxypropyl 3-phenylpiperidine-1-carboxylate] reads 374 nM; that for `O=C(NCC(O)CN1CCc2ccccc2C1)N1CCCc2ccccc21` (stereo not shown) [Example 2A, N-(3-(3,4-dihydroisoquinolin-2(1H)-yl)-2-hydroxypropyl)-3,4-dihydroquinoline-1(2H)-carboxamide], 87 nM.
